One block for each compound: values may come before it.
Tests used:
[1] = reported by Arichi et al. 1982; cited from earlier work
[2] = system: fat fed, STZ treated male Sprague Dawley rats; assay: In vivo hypotriglyceridemic activity: serum triglyceride levels in fat-fed STZ treated rats; design: species or system rat; conditions: 250 mg/kg body weight q.d.
Text: This example illustrates the effectiveness of the stilbenoids of formula (I) in reducing serum triglyceride levels in fat-fed STZ treated male Sprague Dawley rats, i.e., an art-recognized model of hypertriglyceridemia.
This example illustrates the effectiveness of the stilbenoids of formula (I), e.g. longistyline A-2-carboxylic acid (Compound A) in reducing serum triglyceride levels in fat fed, STZ treated male Sprague Dawley rats, i.e., an art recognized model of hypertriglyceridemia. […]
Blood samples from tail snips bleeds were collected six hours after the dose on day one, and three (3) and six (6) hours after the administration of the dose on days 2 through 4 into M brand (Becton Dickinson, Franklin Lakes, N.J.) serum separator tubes, and centrifuged at 12,000 rpm for 10 minutes. Serum was removed and triglyceride levels were measured using enzymatic […] methods (M. W. McGowan, et al., Clin. Chem. 29, 538 (1983) and P Trinder, Ann. Clin. Biochem. 6, 24 (1969)) using Sigma Diagnostic Kits, Sigma Chemical Company, St. Louis, Mo.
Triglyceride levels are expressed as the mean ±SEM. Data were analyzed by one-way analysis of variance (ANOVA), followed by post-hoc Fisher's protected least squares difference (PLSD) tests. […]

[3] = Daily mean body weight of treated fat fed, STZ treated rats; format: in vivo, rat; conditions: 250 mg/kg q.d.; FIG. 3
Method: (§1) FIG. 3 is a line graph showing the mean body weight […] in fat fed, STZ treated rats administered with GELUCIRE™ vehicle only; and 3-hydroxy-4-(3-methyl-2-butenyl)-5-methoxystilbene-2-carboxylic acid (Compound A). -∘- represents vehicle; and -▪- represents Compound A administered at 250 mg/kg q.d. Animals were administered the vehicle and compounds at 24, 48, 72 and 96 h, and serum triglyceride levels were measured at 0, 30, 51, 54, 75 and 80 hours after the oral administration. All data points N=8. *P<0.05 (analysis of variance (ANOVA), one factor).
(§2) Male Sprague Dawley rats arrival from Charles River Laboratories, Hollister, Calif., were fed a high fat (20% by weight) diet (TD 78463) obtained from Harlan Teklad, Madison, Wis., which was stored at 4° C. prior to use. Administration of a high fed diet is a well-known method of inducing hypertriglyceridemia in rats.
(§3) Compound A formulations were prepared fresh daily. The appropriate amount of Compound A in GELUCIRE™ was administered by oral gavage at a volume of 2.5 ml/kg of body weight. Animals were fasted at 8:00 am each day.

[4] = Daily mean food consumption of treated fat fed, STZ treated rats; format: in vivo, rat; conditions: 250 mg/kg q.d.; FIG. 4
Method: as §1, with “FIG. 4” for “FIG. 3”, “mean food consumption” for “mean body weight”
as §2, §3

Structure (SMILES): OC[C@H]1OC(Oc2c(O)cc(O)cc2C=Cc2ccc(O)cc2)[C@H](O)[C@@H](O)[C@@H]1O (stereo partly drawn) [2,3,5,4′-tetrahydroxy stilbene-2-O-D-glucoside]
Serum triglyceride levels [1]: reduce

Food intake (daily mean food consumption) [4]: not effected by the treatments
Structure (SMILES): COc1cc(/C=C/c2ccccc2)c(C(=O)O)c(O)c1CC=C(C)C [Compound A, 3-hydroxy-4-(3-methyl-2-butenyl)-5-methoxystilbene-2-carboxylic acid]
Serum triglyceride (TG) levels compared with vehicle only ([2]; oral gavage in GELUCIRE vehicle, at each of the time points, p<0.05, FIG. 2): significantly lower | Mean TG levels compared with GELUCIRE vehicle treatment group at individual sampling times ([2]; from day 2 through the end of treatment): significantly lower | Gain in rat body weight over the course of treatment [3]: normal and similar among the treatment groups

Structure (SMILES): OC[C@H]1O[C@@H](Oc2cc(O)cc(/C=C/c3ccc(O)cc3)c2)[C@H](O)[C@@H](O)[C@@H]1O [Piceid, 3,4′,5-trihydroxystilbene-3-O-β-D-glucopyranoside]
Liver lipid levels [1]: lower | Serum triglyceride levels [1]: lower
